Test results as given in PubChem BioAssay AID248 (DTP/NCI, 2004).
Values joined by “and” are separate entries in the source; they are usually repeats but may differ in a detail not shown here. Equal values may be shown once. Toxic doses and inconclusive results are not listed. Cut-off read from the data, not from the text of the source: active = T/C of 150% or more; inactive = T/C below 125%.

Test system: L1210 leukemia ip in BDF1 mice, survival T/C
Test: NCI In Vivo Anticancer Drug Screen. Data for tumor model L1210 Leukemia (intraperitoneal) in B6D2F1 (BDF1) mice
Conditions: endpoint: mean survival time, higher = longer survival
Method in brief: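 Mice bearing the transplanted tumor received compound or vehicle. Survival of the treated group was divided by that of the vehicle-treated control group to give the ratio.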

[1] = dose: 100.0 mg/kg/injection, schedule: Q01DX009 (ip), vehicle: Klucel (hydroxypropylcellulose) (HPC)
[2] = dose: 200.0 mg/kg/injection, schedule: Q01DX009 (ip), vehicle: Klucel (hydroxypropylcellulose) (HPC)
[3] = dose: 100.0 mg/kg/injection, schedule: Q01DX001 (ip), vehicle: carboxymethylcellulose (CMC)
[4] = dose: 200.0 mg/kg/injection, schedule: Q01DX001 (ip), vehicle: carboxymethylcellulose (CMC)
[5] = dose: 400.0 mg/kg/injection, schedule: Q01DX001 (ip), vehicle: carboxymethylcellulose (CMC)
[6] = dose: 50.0 mg/kg/injection, schedule: Q01DX001 (ip), vehicle: saline
[7] = dose: 50.0 mg/kg/injection, schedule: Q01DX009 (ip), vehicle: Klucel (hydroxypropylcellulose) (HPC)
[8] = dose: 100.0 mg/kg/injection, schedule: Q01DX001 (ip), vehicle: saline
[9] = dose: 100.0 mg/kg/injection, schedule: Q04DX003 (ip), vehicle: Klucel (hydroxypropylcellulose) (HPC)
[10] = dose: 200.0 mg/kg/injection, schedule: Q01DX001 (ip), vehicle: saline
[11] = dose: 200.0 mg/kg/injection, schedule: Q04DX003 (ip), vehicle: Klucel (hydroxypropylcellulose) (HPC)
[12] = dose: 100.0 mg/kg/injection, schedule: Q04DX002 (ip), vehicle: Klucel (hydroxypropylcellulose) (HPC)
[13] = dose: 200.0 mg/kg/injection, schedule: Q04DX002 (ip), vehicle: Klucel (hydroxypropylcellulose) (HPC)
[14] = dose: 400.0 mg/kg/injection, schedule: Q01DX001 (ip), vehicle: saline
[15] = dose: 400.0 mg/kg/injection, schedule: Q04DX002 (ip), vehicle: Klucel (hydroxypropylcellulose) (HPC)
[16] = dose: 100.0 mg/kg/injection, schedule: Q04DX003 (ip), vehicle: saline with Tween-80
[17] = dose: 200.0 mg/kg/injection, schedule: Q04DX003 (ip), vehicle: saline with Tween-80
[18] = dose: 400.0 mg/kg/injection, schedule: Q04DX003 (ip), vehicle: saline with Tween-80
[19] = dose: 400.0 mg/kg/injection, schedule: Q04DX003 (ip), vehicle: Klucel (hydroxypropylcellulose) (HPC)

Measured: T/C

Cc1ccc(S(=O)(=O)Nc2ccc([N+](=O)[O-])cc2O)cc1
inactive: [1] 97 % of control | [2] 101 % of control | dose: 400.0 mg/kg/injection, schedule: Q01DX009 (ip), vehicle: Klucel (hydroxypropylcellulose) (HPC) 94 % of control

O=C(Nc1cccc2ccccc12)c1ccccc1O
inactive: dose: 50.0 mg/kg/injection, schedule: Q01DX001 (ip), vehicle: carboxymethylcellulose (CMC) 113 % of control | [3] 108 % of control | [4] 96 % of control | [5] 116 % of control

CCOC(=O)NP(NC(=O)NOC)NC(=O)OCC
inactive: [3] 101 % of control | [4] 93 % of control | [5] 101 % of control

CC(=O)NC1CCCCCC1I (stereo unspecified)
inactive: dose: 10.0 mg/kg/injection, schedule: Q01DX001 (ip), vehicle: saline 105 % of control | dose: 20.0 mg/kg/injection, schedule: Q01DX001 (ip), vehicle: saline 101 % of control | dose: 40.0 mg/kg/injection, schedule: Q01DX001 (ip), vehicle: saline 98 % of control

COC(OC)c1cc(=O)[nH]c(N)n1
inactive: [6] 103 % of control | [7] 109 % of control | dose: 50.0 mg/kg/injection, schedule: Q04DX003 (ip), vehicle: Klucel (hydroxypropylcellulose) (HPC) 97 % of control | [8] 101 % of control | [1] 100 % of control | [9] 93 % of control | [10] 108 % of control | [2] 104 % of control | [11] 96 % of control

Cn1ncc(C#N)c1N
inactive: [6] 98 % of control | [8] 110 % of control | [12] 98 % of control | [10] 95 % of control | [13] 91 % of control | [14] 95 % of control | [15] 100 % of control

NC(=O)NC(=O)CC1NC(=O)NC1=O (stereo unspecified)
inactive: dose: 100.0 mg/kg/injection, schedule: Q04DX002 (ip), vehicle: saline 103 % of control | dose: 200.0 mg/kg/injection, schedule: Q04DX002 (ip), vehicle: saline 106 % of control | dose: 400.0 mg/kg/injection, schedule: Q04DX002 (ip), vehicle: saline 87 % of control

CCOC1OC(c2ccccc2)=NS(=O)(=O)C1(C)C (stereo unspecified)
inactive: [12] 103 % of control | [13] 106 % of control | [15] 103 % of control

CCCN1CSC(=S)N(Cc2ccccc2)C1
inactive: [16] 95 % of control | [17] 93 % of control | [18] 90 % of control

NNC(=O)C1CC1
inactive: dose: 12.5 mg/kg/injection, schedule: Q04DX003 (ip), vehicle: saline 101 % of control | dose: 25.0 mg/kg/injection, schedule: Q04DX003 (ip), vehicle: saline 97 % of control | dose: 50.0 mg/kg/injection, schedule: Q04DX003 (ip), vehicle: saline 96 % of control and 103 % of control

O=C1c2cccc(S(=O)(=O)O)c2C(=O)c2cccc(S(=O)(=O)O)c21
inactive: [6] 102 % of control | [8] 109 % of control | [10] 111 % of control | [14] 109 % of control

N#C/C(N)=C(\C#N)N=CC=N/C(C#N)=C(/N)C#N
inactive: dose: 12.5 mg/kg/injection, schedule: Q01DX009 (ip), vehicle: Klucel (hydroxypropylcellulose) (HPC) 103 % of control | dose: 25.0 mg/kg/injection, schedule: Q01DX009 (ip), vehicle: Klucel (hydroxypropylcellulose) (HPC) 103 % of control | [7] 103 % of control | dose: 100.0 mg/kg/injection, schedule: Q01DX001 (ip), vehicle: Klucel (hydroxypropylcellulose) (HPC) 95 % of control

Nc1ncnc(N)c1NC(=O)c1ccc(OCc2ccccc2)c(Br)c1
inactive: dose: 100.0 mg/kg/injection, schedule: Q01DX001 (ip), vehicle: saline with Tween-80 93 % of control | dose: 200.0 mg/kg/injection, schedule: Q01DX001 (ip), vehicle: saline with Tween-80 97 % of control | dose: 400.0 mg/kg/injection, schedule: Q01DX001 (ip), vehicle: saline with Tween-80 96 % of control

CCCN(CCC)C[Si](C)(C)C
inactive: dose: 12.5 mg/kg/injection, schedule: Q01DX001 (ip), vehicle: saline 121 % of control | dose: 25.0 mg/kg/injection, schedule: Q01DX001 (ip), vehicle: saline 105 % of control | [6] 111 % of control

CN(C)CCOC(=O)c1cccc(CCl)c1CCl
inactive: dose: 87.5 mg/kg/injection, schedule: Q01DX009 (ip), vehicle: saline 106 % of control

O=C(OC1CCC/C=C\CCCC1)c1ccc([N+](=O)[O-])cc1 (stereo unspecified)
inactive: [8] 93 % of control | [10] 98 % of control | [14] 96 % of control

C=C1C(=O)O[C@@H]2C[C@@H](C)[C@@H]3[C@@H](OC4OC(COC(C)=O)C(O)C(O)C4O)CC(=O)[C@@]3(C)C[C@H]12 (stereo partly specified)
inactive: dose: 6.4 mg/kg/injection, schedule: Q01DX009 (ip), vehicle: saline 101 % of control | dose: 9.6 mg/kg/injection, schedule: Q01DX009 (ip), vehicle: saline 97 % of control | dose: 14.0 mg/kg/injection, schedule: Q01DX009 (ip), vehicle: saline 104 % of control | dose: 22.0 mg/kg/injection, schedule: Q01DX009 (ip), vehicle: saline 98 % of control | [16] 100 % of control | [17] 89 % of control | [18] 94 % of control

O=C1NC(=S)SC1N=Nc1ccc(S(=O)(=O)Nc2ncccn2)cc1 (stereo unspecified)
inactive: dose: 75.0 mg/kg/injection, schedule: Q01DX001 (ip), vehicle: saline 104 % of control | dose: 150.0 mg/kg/injection, schedule: Q01DX001 (ip), vehicle: saline 102 % of control | dose: 300.0 mg/kg/injection, schedule: Q01DX001 (ip), vehicle: saline 100 % of control

O=S(=O)(N/C(=C(\NS(=O)(=O)c1ccccc1)c1ccccc1)c1ccccc1)c1ccccc1
inactive: [9] 97 % of control | [11] 95 % of control | [19] 92 % of control

CC(C)CN(CC(C)C)C(=O)CCl
inactive: [3] 106 % of control

COc1cc(NC(=O)Nc2c(C)cc(I)cc2C(=O)O)c(I)cc1I
inactive: dose: 75.0 mg/kg/injection, schedule: Q01DX001 (ip), vehicle: other 87 % of control | dose: 150.0 mg/kg/injection, schedule: Q01DX001 (ip), vehicle: other 92 % of control | dose: 300.0 mg/kg/injection, schedule: Q01DX001 (ip), vehicle: other 91 % of control

Cc1ccc(N(N)c2ccc(C)cc2)cc1
inactive: [1] 98 % of control | [9] 100 % of control | [2] 98 % of control | [11] 97 % of control | [19] 100 % of control

C[n+]1c(-c2ccc(Cl)cc2Cl)c2cc([N+](=O)[O-])ccc2c2ccccc21
inactive: dose: 12.5 mg/kg/injection, schedule: Q01DX009 (ip), vehicle: water 113 % of control | dose: 25.0 mg/kg/injection, schedule: Q01DX009 (ip), vehicle: water 113 % of control | dose: 25.0 mg/kg/injection, schedule: Q04DX003 (ip), vehicle: water 108 % of control | dose: 50.0 mg/kg/injection, schedule: Q01DX009 (ip), vehicle: water 101 % of control | dose: 100.0 mg/kg/injection, schedule: Q04DX003 (ip), vehicle: water 95 % of control
